Ends that are not written are not given here.
Experiments:
[1] = system: ESKAPE (Enterococcus faecium, Staphylococcus aureus, Klebsiella pneumoniae, Acinetobacter baumannii, Pseudomonas aeruginosa and Enterobacter spp.) pathogens; settings: in vitro and in vivo, even when protected by biofilms; cited from earlier work
[2] = system: P. aeruginosa PA14 resistant clones (Sm, Wr, Sc); assay: Aggregation assay of resistant clones; assay type: cell-based; settings: presence (4 μg/ml) versus absence of WLBU2, settled 24 hours at 4° C.
Protocol: To determine the aggregation ability of the 4 clones selected in the subinhibitory experiment, two replicates (R1 and R2) of each clone and the ancestral strain were grown in 5 mL of M9^+ for 24 hours at 37 degrees Celsius (° C.) in a roller drum at 200 revolutions per minute (RPM). After 24 hours, the whole culture of each clone was transferred to a 13 mm glass tube, and the tubes were allowed to settle over 24 hours at 4° C. without shaking. Replicate 1 (R1) of each clone was vortexed for 30 seconds and the optical density at 600 nanometers (OD600) was measured. From R2, 200 μl of the upper fraction was carefully taken without vortexing and the OD600 was measured. The aggregation percentage was estimated as […]. This experiment was performed with five replicates both in the absence and presence (4 μg/ml) of WLBU2 (SEQ ID NO: 1).

A. baumannii ATCC 17978 = assay: Experimental evolution in increasing antibiotic concentrations, population survival; assay type: cell-based
Protocol: Experimental evolution: Three independent evolution experiments were conducted. The ancestor strains were propagated in a rich medium modified from M9 (“M9+”) containing 0.37 millmolar (mM) CaCl2), 8.7 mM MgSO4, 42.2 mM Na2HPO4, 22 mM KH2PO4, 21.7 mM NaCl, 18.7 mM NH4Cl and 0.2 grams per liter (g/L) glucose and supplemented with 20 milliliters per liter (mL/L) MEM essential amino acids (Gibco 11130051), 10 mL/L MEM nonessential amino acids (Gibco 11140050), and 10 mL each trace mineral solution A, B, and C (Corning 25021-3Cl).
In the first experiment, a single clone of A. baumannii ATCC 17978 and P. aeruginosa PA14 were selected and propagated independently for 24 hours in M9^+ in the absence of antibiotics. Each population was then sub-cultured into 10 replicate populations. Ten of the populations (5 planktonic and 5 biofilm) were propagated every 24 hours in increasing concentrations of WLBU2 (SEQ ID NO: 1) starting at 0.5× the minimum inhibitory concentration (MIC). The WLBU2 (SEQ ID NO: 1) was doubled after 72 hours until no population survived the treatment. As a control, the same number of strains were propagated (both planktonically and in biofilm) in the absence of antibiotics (e.g., WLBU2 (SEQ ID NO: 1)). Ten populations (5 planktonic and 5 biofilm) were propagated in increasing convention of the cationic peptide polymyxin B. […]
(§1) For identifying mechanisms of resistance to WLBU2 (SEQ ID NO: 1), laboratory strains of A. baumannii ATCC 17978 and P. aeruginosa PA14 that had no prior exposure to WLBU2 (SEQ ID NO: 1) were propagated. […] Two factors that increase the likelihood of developing resistance were determined to be: i) the mutation supply determined by population size and the mutation rate and ii) the strength of selection imposed by the antibiotic. […] In Table 2, the mean mutations per nucleotide and the cumulative probability of a mutation per nucleotide knowing the mutation rate was calculated using the length of the chromosome, the number of divisions/days, and the length of the exposure before facing inhibitory concentrations of antibiotic (WLBU2 (SEQ ID NO: 1)). […]

[3] = system: P. aeruginosa PA14 mutS mutator strain and populations evolved from it; assay: MIC by broth microdilution (CLSI), mutator ancestor and mutator-derived evolved populations; assay type: cell-based; settings: FIG. 3A, mutS-derived populations and clones from WT ancestor, p<0.05 one-way ANOVA
Protocol: Phenotypic characterization: antimicrobial susceptibility and aggregation assay: The MIC to WLBU2 (SEQ ID NO: 1) and polymyxin B of the whole populations and 4 clones were determined by broth microdilution according to the Clinical and Laboratory Standards Instituted guidelines (CLSI 2019), in which each bacterial sample was tested in 2-fold increasing concentrations of each antibiotic. WLBU2 (SEQ ID NO: 1) was provided by Peptilogics (Peptilogics, Pittsburgh, PA) and polymyxin B was provided by Alfa Aesar (Alfa Aesar, Wardhill, Mass.). The experiments were performed with three replicates of the antibiotics.

P. aeruginosa PA14 = assay: Experimental evolution in increasing WLBU2 concentrations (previously used protocol), population survival; assay type: cell-based
Protocol: Experimental evolution: Three independent evolution experiments were conducted. The ancestor strains were propagated in a rich medium modified from M9 (“M9+”) containing 0.37 millmolar (mM) CaCl2), 8.7 mM MgSO4, 42.2 mM Na2HPO4, 22 mM KH2PO4, 21.7 mM NaCl, 18.7 mM NH4Cl and 0.2 grams per liter (g/L) glucose and supplemented with 20 milliliters per liter (mL/L) MEM essential amino acids (Gibco 11130051), 10 mL/L MEM nonessential amino acids (Gibco 11140050), and 10 mL each trace mineral solution A, B, and C (Corning 25021-3Cl). […]
as §1

[4] = system: P. aeruginosa and S. aureus biofilms; settings: cited from earlier work
[5] = system: P. aeruginosa (PA14 mutS:T114P); assay: Experimental evolution with hypermutator ancestor, population survival; assay type: cell-based
Source text: In the second experiment, 5 planktonic populations and 5 biofilm populations under the same conditions described above, and a mutator strain of P. aeruginosa (PA14 mutS:T114P), obtained from Flynn et al. (“Evolution of Ecological Diversity in Biofilms of Pseudomonas aeruginosa by Altered Cyclic Diguanylate Signaling.” J. Bacteriol., 2016, 198:2608-2618). Additionally, 3 planktonic populations and 3 biofilm populations of the hypermutant strain in the absence of antibiotic (e.g., WLBU2 (SEQ ID NO: 1)) pressure were propagated. Hypermutant strains of bacteria, such as P. aeruginosa, can develop in patients, and may be characterized as having increased mutation rates, e.g., up to 1,000-fold, as compared to wild-type bacteria, such as P. aeruginosa (see, e.g., Maciá, Maria D et al. “Hypermutation is a key factor in development of multiple-antimicrobial resistance in Pseudomonas aeruginosa strains causing chronic lung infections.” Antimicrobial agents and chemotherapy vol. 49, 8 (2005): 3382-6).
(§2) The planktonic propagations were serially passaged through 50 uL into 5 mL of M9+(dilution factor 100) which corresponds to approximately 6.66 generations per day. For the biofilm populations, a polystyrene bead (Polysciences, Inc., Warrington, PA) was transferred to fresh media containing 3 sterile beads. Each bead was rinsed in phosphate buffered saline (PBS) before the transfer to reduce the transfer planktonic cells. Each day, black and white marked beads were alternated, ensuring that the bacteria were growing on the bead for 24 hours, which corresponds to 6 to 7.5 generations/day.
Increasing mutation supply by using hypermutator strain promotes evolution resistance: A method to increase mutation supply during evolution experiments was to use an ancestral strain with a higher mutation rate. These mutator genotypes commonly evolve during chronic infections of P. aeruginosa and therefore relevant to antimicrobial resistance (AMR) evolution. […]

[6] = system: wild-type P. aeruginosa PA14; assay: Experimental evolution with extended subinhibitory exposure, population survival; assay type: cell-based
Protocol: In the third experiment, 5 planktonic populations of the non-hypermutant laboratorial strain P. aeruginosa PA14 were propagated under subinhibitory concentrations of WLBU2 (SEQ ID NO: 1) for 10 days. The populations that survived the treatment with 1×MIC of WLBU2 (SEQ ID NO: 1) were propagated for 2 days.
as §2
Five planktonic populations of wild-type P. aeruginosa PA14 was propagated for 10 days under subinhibitory concentrations of WLBU2 (SEQ ID NO: 1), followed by 2 days at inhibitory concentrations. It was estimated the probability that any given nucleotide would be mutated during this regime was 0.74, with mean mutations per site of 1.52. […] Different colony morphologies were also detected within each population at the end of the experiment. […]

[7] = planktonic and biofilm, 3 days at 0.5x MIC before the MIC
[8] = five mutator populations per lifestyle

Row | Substance | effectiveness against ESKAPE pathogens [1] | aggregation of Sm colonies relative to WT [2] | populations that survived exposure of the MIC (A. baumannii ATCC 17978; [7]) | resistance level (MIC) of evolved populations versus WT [3] | populations that survived exposure of the MIC (P. aeruginosa PA14; [7]) | Populations that survived entire experiment (%) (P. aeruginosa PA14; previously used protocol, strain PA14, 3 days before inhibitory concentrations) | activity against biofilms [4] | biofilm populations that survived the treatment [5, 8] | planktonic populations that survived the treatment [5, 8] | Populations that survived entire experiment (%) ([5]; hypermutator ancestor PA14 mutS: T114P, 3 days before inhibitory concentrations) | Populations that survived entire experiment (%) ([6]; extended subinhibitory exposure, strain PA14, 10 days subinhibitory then 2 days inhibitory) | populations that survived the prolonged subinhibitory treatment ([6]; five planktonic populations, 10 days subinhibitory then 2 days inhibitory) | biofilm populations that survived in 4-times the MIC (A. baumannii ATCC 17978; biofilm lifestyle, increasing concentrations over 12 days) | planktonic populations that survived in 4-times the MIC (A. baumannii ATCC 17978; planktonic lifestyle, 5 populations, increasing concentrations over 12 days)
1 | RRWVRRVRRVWRRVVRVVRRWVRR [WLBU2] | highly effective | only clustered more in the presence of the peptide | no populations | significantly exceeded WT resistance | no populations | 0 | high activity | three | Two | 50 | 40 | two |  | 
2 | polymyxin B |  |  |  |  |  |  |  |  |  |  |  |  | four out of the five | all
